Reference: article PMC4386948, “Artemether-lumefantrine co-administration with antiretrovirals: population pharmacokinetics and dosing implications” (British Journal of Clinical Pharmacology, 2014)
Where two headings read alike, the source gives them in different places. One block for each compound: values may come before it.

What was measured:
[1] = Population pharmacokinetics of lumefantrine/desbutyl-lumefantrine alone and with efavirenz, nevirapine or lopinavir/ritonavir (non-linear mixed effects modelling of plasma concentrations); assay type: in vivo, human; details: for CL/F, apparent elimination clearance, population estimate [RSE %]: parent fully converted to metabolite; for EFZCL/F, effect on elimination clearance by concomitant treatment with efavirenz: concomitant efavirenz 600 mg; for EFZCL/F, effect on elimination clearance by concomitant treatment with efavirenz / LOPCL/F, effect on elimination clearance by concomitant treatment with lopinavir/ritonavir: positive = increase; for LOPCL/F, effect on elimination clearance by concomitant treatment with lopinavir/ritonavir: concomitant lopinavir/ritonavir 400/100 mg
Excerpt: Study 1 was a parallel group study in HIV-infected patients. Inclusion criteria were age >18 years, informed written consent and a confirmed HIV diagnosis. Exclusion criteria were anaemia (haemoglobin levels below 8 g dl^–1), viral loads above 400 counts ml^−1, malaria parasitaemia, abnormal liver or renal function, pregnancy, the use of substances which inhibit or induce CYP enzymes or P-glycoprotein, use of herbal medicines, prolonged QT interval, or any intercurrent illness. Ethics approval was received from the Uganda National HIV/AIDS Research Committee (ARC 056) and the Uganda National Council of Science and Technology (HS 195) and the study was registered with http://ClinicalTrials.gov (NCT 00619944).
Study 2 was a three period, crossover study in HIV-infected patients. Inclusion and exclusion criteria were the same as for study 1 (i.e. age >18 years, informed written consent and a confirmed HIV diagnosis) except that there were no restrictions based on viral load, and patients with hypersensitivity to artemisinins, lumefantrine or halofantrine or any history of cardiac disease were excluded from the study. Ethics approval was received from the Uganda National HIV/AIDS Research Committee (ARC 059) and from the Uganda National Council of Science and Technology (HS 196). The study was registered at http://ClinicalTrials.gov (NCT00620438).
Patients in the first arm were treated with 400/100 mg of lopinavir/ritonavir (Aluvia®, Abbott Laboratories, Abbott Park, Illinois, USA) and two nucleoside reverse transcriptase inhibitors (zidovudine and didanosine or tenofovir and emtricitabine, regional non-controlled procurement). The drugs were taken twice daily for at least 1 month before the start of the study. Patients in the second arm had not yet started their HIV therapy. At the initiation of the study all patients received a single dose of 80 mg artemether and 480 mg lumefantrine (four tablets) (Coartem®, Novartis Pharma AG, Basel, Switzerland; Batch number: F0660). Venous plasma samples were drawn at 1, 2, 4, 6, 8, 12, 24, 48 and 72 h post-dose.
At the start of the study, all patients received a standard treatment of artemether and lumefantrine (80/480 mg twice daily for 3 days; Coartem®). Plasma samples were collected after the last dose at 1, 2, 4, 8, 12, 24, 48, 72, 96 and 120 h post-dosing. After 1 week of wash-out, patients started HIV treatment with either nevirapine (200 mg) or efavirenz (600 mg) combined with the nucleoside reverse transcriptase inhibitors zidovudine and lamivudine. Patients received HIV treatment alone for 1 month and then were given a standard six dose treatment of artemether and lumefantrine concomitantly. Plasma samples were again collected after the last artemether-lumefantrine dose.
Artemether/dihydroartemisinin and lumefantrine were quantified in plasma samples according to previously published methods. Artemether and dihydroartemisinin were measured using solid phase extraction and liquid chromatography coupled with tandem mass spectrometric detection. […] Lumefantrine was measured using solid phase extraction followed by liquid chromatography with ultraviolet detection.
Desbutyl-lumefantrine was measured using liquid chromatography (Model 1200 system, Agilent Technologies) coupled with tandem mass spectrometric detection (API5000 triple-quadrupole system, AB Sciex). Desbutyl-lumefantrine and its analogue internal standard (C28H28CL3NO [39]) were extracted from plasma samples (100 μl) by protein precipitation followed by phospholipid removal (Hybrid SPE-Precipitation 96-wellplate, 575656-U, Supelco).

[2] = cited from earlier work
[3] = Population pharmacokinetics of artemether/dihydroartemisinin alone and with efavirenz, nevirapine or lopinavir/ritonavir (non-linear mixed effects modelling of plasma concentrations); assay type: in vivo, human; details: for Vc/F, apparent volume of distribution of the central compartment, population estimate [RSE %] / CL/F, apparent elimination clearance, population estimate [RSE %]: HIV-infected adults, oral artemether-lumefantrine, plasma; for CL/F, apparent elimination clearance, population estimate [RSE %]: parent fully converted to metabolite; for exposure: nevirapine or lopinavir/ritonavir (all three antiretroviral drugs); for LOPCL/F, effect on elimination clearance by concomitant treatment with lopinavir/ritonavir: concomitant lopinavir/ritonavir 400/100 mg, positive = increase
Excerpt: Study 1 was a parallel group study in HIV-infected patients. Inclusion criteria were age >18 years, informed written consent and a confirmed HIV diagnosis. Exclusion criteria were anaemia (haemoglobin levels below 8 g dl^-1), viral loads above 400 counts ml^-1, malaria parasitaemia, abnormal liver or renal function, pregnancy, the use of substances which inhibit or induce CYP enzymes or P-glycoprotein, use of herbal medicines, prolonged QT interval, or any intercurrent illness. Ethics approval was received from the Uganda National HIV/AIDS Research Committee (ARC 056) and the Uganda National Council of Science and Technology (HS 195) and the study was registered with http://ClinicalTrials.gov (NCT 00619944). Study 2 was a three period, crossover study in HIV-infected patients. Inclusion and exclusion criteria were the same as for study 1 (i.e. age >18 years, informed written consent and a confirmed HIV diagnosis) except that there were no restrictions based on viral load, and patients with hypersensitivity to artemisinins, lumefantrine or halofantrine or any history of cardiac disease were excluded from the study. Ethics approval was received from the Uganda National HIV/AIDS Research Committee (ARC 059) and from the Uganda National Council of Science and Technology (HS 196). The study was registered at http://ClinicalTrials.gov (NCT00620438). Patients in the first arm were treated with 400/100 mg of lopinavir/ritonavir (Aluvia®, Abbott Laboratories, Abbott Park, Illinois, USA) and two nucleoside reverse transcriptase inhibitors (zidovudine and didanosine or tenofovir and emtricitabine, regional non-controlled procurement). The drugs were taken twice daily for at least 1 month before the start of the study. Patients in the second arm had not yet started their HIV therapy. At the initiation of the study all patients received a single dose of 80 mg artemether and 480 mg lumefantrine (four tablets) (Coartem®, Novartis Pharma AG, Basel, Switzerland; Batch number: F0660). Venous plasma samples were drawn at 1, 2, 4, 6, 8, 12, 24, 48 and 72 h post-dose. At the start of the study, all patients received a standard treatment of artemether and lumefantrine (80/480 mg twice daily for 3 days; Coartem®). Plasma samples were collected after the last dose at 1, 2, 4, 8, 12, 24, 48, 72, 96 and 120 h post-dosing. […] Patients received HIV treatment alone for 1 month and then were given a standard six dose treatment of artemether and lumefantrine concomitantly. Plasma samples were again collected after the last artemether-lumefantrine dose. Artemether/dihydroartemisinin and lumefantrine were quantified in plasma samples according to previously published methods. Artemether and dihydroartemisinin were measured using solid phase extraction and liquid chromatography coupled with tandem mass spectrometric detection. The total coefficient of variation (%CV) was less than 6% and the lower limit of quantification was set to 1.4 ng ml^-1. Lumefantrine was measured using solid phase extraction followed by liquid chromatography with ultraviolet detection. The total coefficient of variation was below 6% and the lower limit of quantification was set to 25 ng ml^-1. Modelling and simulations were performed in NONMEM v7.12 (Icon Development Solutions, Ellicott City, Maryland, USA). Model discrimination was based on the objective function value (OFV) which is proportional to -2 times the log-likelihood of the data. […]2.6.0 was used to document the modelling process. R v2.14.2 (the R Foundation for Statistical Computing, Vienna, Austria) and the package Xpose v4.3.5 [43] was used to perform model diagnostics. Perl-speaks-NONMEM v3.5.3 was used for automation throughout the modelling process. Data below the limit of quantification were initially omitted or modelled as categorical data (M3-method), if necessary. […]

[4] = HIV-infected adults, oral artemether-lumefantrine, plasma
[5] = concomitant lopinavir/ritonavir
[6] = stated in methods, no reference given

Q/F, inter-compartment clearance, population estimate [RSE %] [1, 4]: 2.86 [19.4] l h^−1
VP/F, apparent volume of distribution of the peripheral compartment, population estimate [RSE %] [1, 4]: 111 [9.14] l
Vc/F, apparent volume of distribution of the central compartment, population estimate [RSE %] [1, 4]: 68.9 [27.1] l
CL/F, apparent elimination clearance, population estimate [RSE %] [1, 4]: 4.77 [5.30] l h^−1
EFZCL/F, effect on elimination clearance by concomitant treatment with efavirenz [1]: 72.6%
EFZCL/F, effect on elimination clearance by concomitant treatment with efavirenz ([1]; listed as Lumefantrine): 72.6 [17.2] %
decrease of elimination clearance [1, 5]: 62%
LOPCL/F, effect on elimination clearance by concomitant treatment with lopinavir/ritonavir [1]: −62.1 [8.48] %
lowering of relative bioavailability ([1]; concomitant nevirapine): 25%
MTT, mean transit time of the absorption, population estimate [RSE %] ([1]; one transit compartment): 6.27 [21.2] h
Structure (SMILES): CCCCN(CCCC)CC(O)c1cc(Cl)cc2c1-c1ccc(Cl)cc1/C2=C/c1ccc(Cl)cc1 (centres unmarked) [lumefantrine]
elimination half-life [2]: 48 to 96 h
increase of exposure for a 100% dose increase (dose limited absorption, assumed in simulations) [2]: 70%
systemic exposure relative to its metabolite desbutyl-lumefantrine [2]: 85- to 300 fold
terminal half-life [2, 6]: 79.2 h

Vc/F, apparent volume of distribution of the central compartment, population estimate [RSE %] [3]: 1090 [8.69] l
CL/F, apparent elimination clearance, population estimate [RSE %] [3]: 317 [8.25] l h^−1
Hill coefficient in the maturation model (auto-induction) ([3]; MMAX 1 FIX, MF50 62 FIX, reduced dataset): 0.445 [43.9 ^‡]
decrease of relative bioavailability ([3]; concomitant efavirenz): 71%
exposure ([3]; concomitant efavirenz): decreased
LOPCL/F, effect on elimination clearance by concomitant treatment with lopinavir/ritonavir [3]: 32.8%
LOPCL/F, effect on elimination clearance by concomitant treatment with lopinavir/ritonavir ([3]; listed as Artemether): 32.8 [21.5] %
decrease of relative bioavailability ([3]; concomitant nevirapine): 66%
MTT, mean transit time of the absorption phase, population estimate [RSE %] ([3]; three transit compartments): 0.970 [6.58] h
Structure (SMILES): CO[C@H]1O[C@@H]2O[C@@]3(C)CC[C@H]4[C@H](C)CC[C@@H]([C@H]1C)[C@@]24OO3 [artemether]
terminal half-life [2]: 1.5 to 2.0 h

CL/F, apparent elimination clearance, population estimate [RSE %] [1, 4]: 489 [5.98] l h^−1
exposure [1, 5]: decreased exposure
LOPCL/F, effect on elimination clearance by concomitant treatment with lopinavir/ritonavir [1]: 392%
LOPCL/F, effect on elimination clearance by concomitant treatment with lopinavir/ritonavir ([1]; listed as Desbutyl-Lumefantrine): 392 [17.6] %
exposure ([1]; concomitant nevirapine, due to lower bioavailability of lumefantrine): decreased
Structure (SMILES): CCCCNCC(O)c1cc(Cl)cc2c1-c1ccc(Cl)cc1/C2=C/c1ccc(Cl)cc1 (centres unmarked) [desbutyl-lumefantrine]

Vc/F, apparent volume of distribution of the central compartment, population estimate [RSE %] [3]: 14.9 [39.8] l
CL/F, apparent elimination clearance, population estimate [RSE %] [3]: 160 [4.93] l h^−1
exposure ([3]; concomitant efavirenz): decreased
LOPCL/F, effect on elimination clearance by concomitant treatment with lopinavir/ritonavir [3]: 143%
LOPCL/F, effect on elimination clearance by concomitant treatment with lopinavir/ritonavir ([3]; listed as Dihydroartemisinin): 143 [19.7] %
decrease of elimination clearance ([3]; concomitant nevirapine): 44%
NEVCL/F, effect on elimination clearance by concomitant treatment with nevirapine ([3]; concomitant nevirapine 200 mg): −44.5 [14.5] %
Structure (SMILES): C[C@H]1[C@@H](O)O[C@@H]2O[C@@]3(C)CC[C@H]4[C@H](C)CC[C@@H]1[C@@]24OO3 [dihydroartemisinin]
half-life [2]: 0.8 to 2.1 h
terminal half-life [2, 6]: 1 to 2 h
